In patent publication US8410126B2, “Pyrimidine inhibitors of PKTK2” (Boehringer Ingelheim International GmbH, priority 2009, dated 2013):

Each compound was assayed against T1, PTK2 (Homo sapiens, UniProt Q05397) (assay: PTK2 enzyme test Assay 2 (DELFIA, poly-Glu-Tyr substrate, PT66 antibody)). Conditions: Assay 2 (values marked *); 1 h pre-incubation, 50 μM ATP mix, final DMSO 0.5%.
T1 construct: purchased Invitrogen PV3832
Format: biochemical
Source text: This test uses active PTK2 enzyme (Invitrogen Code PV3832) and poly-Glu-Tyr (4:1, Sigma P-0275) as the kinase substrate. The kinase activity is detected by means of the phosphorylation of the substrate in a DELFIA™ assay. The phosphorylated substrate is detected with the europium-labelled phosphotyrosine antibody PT66 (Perkin Elmer, No.: AD0040).
In order to determine concentration-activity curves with PTK2-inhibitors the compounds are serially diluted first of all in 100% DMSO and then in kinase dilution buffer (20 mM TRIS/HCl pH 7.5, 0.1 mM EDTA, 0.1 mM EGTA, 0.286 mM sodium orthovanadate, 10% glycerol with the addition of freshly prepared BSA (fraction V, 1 mg/mL) and DTT (1 mM)) and 10 μL of each dilution are dispensed per well in a 96-well microtitre plate (clear U-shaped base plate, Greiner No. 650101) (the inhibitors are tested in duplicates) and mixed with 10 μL/well of PTK2 kinase (0.01 μg/well). PTK2 kinase is diluted accordingly beforehand with kinase dilution buffer. The diluted PTK2 inhibitor and the PTK2 kinase are pre-incubated for 1 h at RT and shaken at 500 revolutions per min. Then 10 μL/well poly-Glu-Tyr substrate (25 μg/well poly-Glu-Tyr, 0.05 μg/well biotinylated poly-Glu-Tyr dissolved in 250 mM TRIS/HCl pH 7.5, 9 mM DTT) are added. The reaction is started by the addition of 20 μL of ATP Mix (30 mM TRIS/HCl pH 7.5, 0.02% Brij, 0.2 mM sodium orthovanadate, 10 mM magnesium acetate, 0.1 mM EGTA, 1× phosphatase inhibitor cocktail 1 (Sigma, No.: P2850), 50 μM ATP (Sigma, No.: A3377; 15 mM stock solution))—the final concentration of DMSO is 0.5%. After 1 h kinase reaction (the plates are shaken at 500 rpm), the reaction is stopped by the addition of 12 μL/well of 100 mM EDTA, pH 8, and shaken for a further 5 min at RT (500 U/min). 55 μL of the reaction mixture are transferred into a streptavidin plate (Strepta Well High Bind (transparent, 96-well) made by Roche, No.: 11989685001) and incubated for 1 h at RT (shaking at 500 rpm). Then the microtitre plate is washed five times with 200 μL/well D-PBS (Invitrogen, No. 14190). 100 μL of a solution containing DELFIA Eu-N1 Anti-Phosphotyrosine PT66 antibody (Perkin Elmer, No.: AD0040, diluted 1:9000 in DELFIA test buffer (Perkin Elmer, No.: 1244-111)) is then added and it is incubated for 1 h at RT (shaking at 500 rpm). Then the plate is washed five times with 200 μL/well DELFIA washing buffer (Perkin Elmer, No.: 1244-114), 200 μL/well strengthening solution (Perkin Elmer, No.: 1244-105) is added and the whole is incubated for 10 min at RT (shaking at 300 rpm).
The time-delayed europium fluorescence is then measured in a microtitre plate reader (VICTOR^3, Perkin Elmer). The positive control consists of wells that contain solvent (0.5% DMSO in test buffer) and display uninhibited kinase activity. Wells that contain test buffer instead of enzyme act as a control for the background kinase activity.
The IC50 values are determined from concentration-activity analyses by iterative calculation using a sigmoid curve analysis algorithm (FIFTY, based on GraphPAD Prism Version 3.03) with a variable Hill coefficient.

T1 sequence (Q05397 whole entry): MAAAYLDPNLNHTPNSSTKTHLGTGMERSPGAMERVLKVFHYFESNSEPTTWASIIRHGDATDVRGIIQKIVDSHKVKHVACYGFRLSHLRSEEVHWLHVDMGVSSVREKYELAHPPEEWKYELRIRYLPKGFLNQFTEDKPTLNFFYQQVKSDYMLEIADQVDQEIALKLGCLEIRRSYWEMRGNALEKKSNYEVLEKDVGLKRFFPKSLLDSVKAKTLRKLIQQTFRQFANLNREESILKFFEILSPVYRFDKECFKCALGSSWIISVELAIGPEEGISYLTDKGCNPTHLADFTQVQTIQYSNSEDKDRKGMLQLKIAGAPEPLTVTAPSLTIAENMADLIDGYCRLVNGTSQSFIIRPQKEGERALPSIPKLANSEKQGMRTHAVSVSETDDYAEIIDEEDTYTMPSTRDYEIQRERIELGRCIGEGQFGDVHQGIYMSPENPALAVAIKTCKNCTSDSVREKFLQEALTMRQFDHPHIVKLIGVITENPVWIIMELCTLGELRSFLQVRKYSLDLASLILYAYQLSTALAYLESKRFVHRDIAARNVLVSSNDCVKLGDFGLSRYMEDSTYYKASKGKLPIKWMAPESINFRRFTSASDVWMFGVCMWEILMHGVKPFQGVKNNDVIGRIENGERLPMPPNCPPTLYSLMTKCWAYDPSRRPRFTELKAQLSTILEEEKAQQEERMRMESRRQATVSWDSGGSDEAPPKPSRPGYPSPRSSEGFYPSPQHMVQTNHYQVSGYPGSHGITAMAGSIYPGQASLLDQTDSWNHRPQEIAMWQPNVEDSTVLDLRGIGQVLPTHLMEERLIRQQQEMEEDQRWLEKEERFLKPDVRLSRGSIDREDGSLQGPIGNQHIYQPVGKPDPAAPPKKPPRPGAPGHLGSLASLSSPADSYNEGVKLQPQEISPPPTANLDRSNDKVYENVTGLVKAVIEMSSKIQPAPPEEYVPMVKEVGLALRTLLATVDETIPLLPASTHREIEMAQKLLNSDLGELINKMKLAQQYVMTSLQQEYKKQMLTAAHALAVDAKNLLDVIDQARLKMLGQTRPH

Row | Structure (SMILES) | IC50 [nM]
1 | COc1cc(N2CCN(C(C)(C)C)CC2)c(C)cc1Nc1ncc(C(F)(F)F)c(N[C@@H]2Cc3ccccc3[C@H]2N(C)S(C)(=O)=O)n1 [Example I-78, N-((1R,2R)-2-{2-[4-(4-tert-butyl-piperazin-1-yl)-2-methoxy-5-methyl-phenylamino]-5-trifluoromethyl-pyrimidin-4-ylamino}-indan-1-yl)-N-methyl-methanesulphonamide] | 0.83
2 | COc1ccc(C(=O)NCCN(C)C)cc1Nc1ncc(C(F)(F)F)c(N[C@@H]2Cc3ccccc3[C@H]2N(C)S(C)(=O)=O)n1 [Example I-63, N-(2-dimethylamino-ethyl)-3-{4-[(1R,2R)-1-(methanesulphonyl-methyl-amino)-indan-2-ylamino]-5-trifluoromethyl-pyrimidin-2-ylamino}-4-methoxy-benzamide] | 0.71
3 | COc1cc(C(=O)NCCN(C)C)ccc1Nc1ncc(C(F)(F)F)c(N[C@@H]2CCc3ccccc3[C@H]2N(C)S(C)(=O)=O)n1 [Example I-94] | 16
4 | COc1cc(N2CCNCC2)c(Cl)cc1Nc1ncc(C(F)(F)F)c(N[C@@H]2Cc3ccccc3[C@H]2N(C)S(C)(=O)=O)n1 [Example I-76, N-{(1R,2R)-2-[2-(5-chloro-2-methoxy-4-piperazin-1-yl-phenylamino)-5-trifluoromethyl-pyrimidin-4-ylamino]-indan-1-yl}-N-methyl-methanesulphonamide] | 0.76
5 | COc1cc(NC(=O)C2CCN(C)C2)ccc1Nc1ncc(C(F)(F)F)c(N[C@@H]2Cc3ccccc3[C@H]2N(C)S(C)(=O)=O)n1 (stereo partly drawn) [Example I-72] | 0.74
6 | CCc1cc(Nc2ncc(C(F)(F)F)c(N[C@@H]3Cc4ccccc4[C@H]3N(C)S(C)(=O)=O)n2)c(OC)cc1N1CCN(C)CC1 [Example I-67, N-((1R,2R)-2-{2-[5-ethyl-2-methoxy-4-(4-methyl-piperazin-1-yl)-phenylamino]-5-trifluoromethyl-pyrimidin-4-ylamino}-indan-1-yl)-N-methyl-methanesulphonamide] | 0.68

The next compounds have a lower IC50 than those just listed; values first:

Row | IC50 [nM] | Structure (SMILES)
7 | 0.66 | COc1cc(N2CCNCC2)c(C)cc1Nc1ncc(C(F)(F)F)c(N[C@@H]2Cc3ccccc3[C@H]2N(C)S(C)(=O)=O)n1 [Example I-74, N-{(1R,2R)-2-[2-(2-methoxy-5-methyl-4-piperazin-1-yl-phenylamino)-5-trifluoromethyl-pyrimidin-4-ylamino]-indan-1-yl}-N-methyl-methanesulphonamide]
8 | 0.62 | COc1ccc(NC(=O)C2CCN(C)CC2)cc1Nc1ncc(C(F)(F)F)c(N[C@@H]2Cc3ccccc3[C@H]2N(C)S(C)(=O)=O)n1 [Example I-62, 1-methyl-piperidine-4-carboxylic acid (3-{4-[(1R,2R)-1-(methanesulphonyl-methyl-amino)-indan-2-ylamino]-5-trifluoromethyl-pyrimidin-2-ylamino}-4-methoxy-phenyl)-amide]
9 | 0.6 | COc1cc(N2CCN(C(C)(C)C)CC2)ccc1Nc1ncc(C(F)(F)F)c(N[C@@H]2Cc3ccccc3[C@H]2N(C)S(C)(=O)=O)n1 [Example I-66, N-((1R,2R)-2-{2-[4-(4-tert-butyl-piperazin-1-yl)-2-methoxy-phenylamino]-5-trifluoromethyl-pyrimidin-4-ylamino}-indan-1-yl)-N-methyl-methanesulphonamide]
10 | 0.6 | COc1ccc(C(=O)NC2CCN(C)CC2)cc1Nc1ncc(Cl)c(N[C@@H]2Cc3ccccc3[C@H]2N(C)S(C)(=O)=O)n1 [Example I-93]
11 | 0.44 | COc1ccc(C(=O)N(C)CCN2CCCC2)cc1Nc1ncc(C(F)(F)F)c(N[C@@H]2Cc3ccccc3[C@H]2N(C)S(C)(=O)=O)n1 [Example I-85]
12 | 0.37 | COc1ccc(C(=O)NC2CCN(C)CC2)cc1Nc1ncc(C(F)(F)F)c(N[C@@H]2Cc3ccccc3[C@H]2N(C)S(C)(=O)=O)n1 [Example I-69]
13 | 0.36 | COc1cc(C)c(C(=O)NC2CCOCC2)cc1Nc1ncc(C(F)(F)F)c(N[C@@H]2Cc3ccccc3[C@H]2N(C)S(C)(=O)=O)n1 [Example I-82]
14 | 0.36 | COc1cc(F)c(C(=O)NC2CCN(C)CC2)cc1Nc1ncc(C(F)(F)F)c(N[C@@H]2Cc3ccccc3[C@H]2N(C)S(C)(=O)=O)n1 [Example I-80, 2-fluoro-5-{4-[(1R,2R)-1-(methanesulphonyl-methyl-amino)-indan-2-ylamino]-5-trifluoromethyl-pyrimidin-2-ylamino}-4-methoxy-N-(1-methyl-piperidin-4-yl)-benzamide]
15 | 0.26 | CN1CCC(NC(=O)c2cccc(Nc3ncc(C(F)(F)F)c(N[C@@H]4Cc5ccccc5[C@H]4N(C)S(C)(=O)=O)n3)c2)CC1 [Example I-88]
